# Experiments:
# Neutrophil elastase = biological target: T1, Neutrophil elastase (Homo sapiens, UniProt P08246); experiment: Potency of Inhibition of human leukocyte elastase (HLE) expressed as apparent binding constant
# T1 sequence (P08246 whole entry): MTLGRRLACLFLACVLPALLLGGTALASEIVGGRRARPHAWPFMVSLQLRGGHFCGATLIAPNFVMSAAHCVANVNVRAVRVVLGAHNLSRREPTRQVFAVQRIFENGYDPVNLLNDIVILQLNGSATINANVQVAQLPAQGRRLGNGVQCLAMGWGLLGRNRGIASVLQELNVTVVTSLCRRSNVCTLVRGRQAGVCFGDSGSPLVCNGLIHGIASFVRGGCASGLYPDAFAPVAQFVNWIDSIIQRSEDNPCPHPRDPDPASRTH
# [1] = biological target: T2, Neutrophil elastase (Homo sapiens) (UniProt P08246)
# T2 sequence (whole entry): T1 sequence (P08246 whole entry)
# Description: Inhibition of human leukocyte elastase (HLE) expressed as K inactivation rate
# [2] = biological target: T2, Neutrophil elastase (Homo sapiens); remark: listed apart in the source
# Description: Inhibition of human leukocyte elastase (HLE) expressed as K reactivation rate
Ki (Neutrophil elastase) [nM],K inact [1] [M⁻¹ s⁻¹],Kreact [2] [s⁻¹],SMILES
2000,–,–,CC(C)(C)c1cccc2c1C(=O)N(CSc1nnnn1-c1ccccc1)S2(=O)=O
–,45300,0.00014,CCOc1cccc2c1C(=O)N(CSc1nnnn1-c1ccccc1)S2(=O)=O
–,1000,0.0001,Cn1nnnc1SCN1C(=O)c2ccccc2S1(=O)=O
–,–,0.00036,O=C1c2c(Br)cccc2S(=O)(=O)N1CSc1nnnn1-c1ccccc1
–,190,4.7e-05,Cn1cnnc1SCN1C(=O)c2ccccc2S1(=O)=O

# Further lines, the molecule ahead of its results:
SMILES,Ki (Neutrophil elastase) [nM],K inact [1] [M⁻¹ s⁻¹],Kreact [2] [s⁻¹]
O=C1c2c(-c3ccccc3)cccc2S(=O)(=O)N1CSc1nnnn1-c1ccccc1,–,5800,0.0005
CC(C)Oc1cccc2c1C(=O)N(CSc1nnnn1-c1ccccc1)S2(=O)=O,–,8900,0.00016
O=C1c2ccccc2S(=O)(=O)N1CSc1nnnn1C1CCCCC1,–,2500,0.0001
CC(=O)OCN1C(=O)c2ccccc2S1(=O)=O,–,630,0.0001
